In patent US7582418B2, “Antimicrobial chelates” (Albion Laboratories, Inc., priority 2004, dated 2009):

Experiments:
Type in all cases: cell-based
Candida albicans [1] = test: Zone inhibition assay (filter paper disc area diffusion); conditions: distance from edge of disc to growth; discs saturated with 100 mg/ml solution (antibiotic control discs 5-30 μg); 24 hours at 37° C.
Procedure: (§1) Two methods were used to examine whether an inhibitory effect from the zinc containing compounds was observable and if there was an inhibitory effect, whether the effect was bactericidal (bacteria-killing) or bacteriostatic (bacterial-inhibiting) in nature. In the first method, two Gram-positive bacteria strains (Staphlococcus aureus, Streptococcus pyogenes), two Gram-negative bacteria strains (Salmonella typhimerium, Eschrichia coli), and one common yeast strain (Candida albicans) were grown nutrient agar plates, except in the case of S. pyogenes which was grown on blood agar plates.
(§2) Zone inhibition assays were conducted with eighteen different samples in accordance with the methodology described by Maruzella, J. C. and Henry, P. A., J. Am. Pharm. Assoc. 47:894 (1958) for filter paper disc area diffusion. Sample solutions were prepared to approximate 100 mg/mL concentrations.
(§3) Organisms were grown for 24 hours at 37° C. on blood agar plates with the exception of Candida albicans which was grown in a standard methods agar (SMA) medium. Solutions of each sample were prepared using sterile DD water at a concentration of 100 mg/ml. Paper discs were saturated with solution from each sample and dried aseptically. […] Following drying of solution derived discs, all discs were placed on agar plates with each of the five different microorganisms.

Eschrichia coli [2] = test: as above; conditions: distance from edge of disc to bacterial growth; discs saturated with 100 mg/ml solution (antibiotic control discs 5-30 μg); 24 hours at 37° C.
Procedure: as §1, §2, §3

Salmonella typhimerium = test: as above; conditions: distance from edge of disc to bacterial growth; discs saturated with 100 mg/ml solution (antibiotic control discs 5-30 μg); 24 hours at 37° C.
Procedure: as §1, §2, §3

Staphlococcus aureus [3] = test: as above; conditions: distance from edge of disc to bacterial growth; discs saturated with 100 mg/ml solution (antibiotic control discs 5-30 μg); 24 hours at 37° C.
Procedure: as §1, §2, §3

Streptococcus pyogenes = test: as above; conditions: distance from edge of disc to bacterial growth; blood agar; discs saturated with 100 mg/ml solution (antibiotic control discs 5-30 μg); 24 hours at 37° C.
Procedure: as §1, §2, §3

Candida albicans [4] = test: Turbidity assay (TSB tubes, plated out); design: key: no-growth (NG) which corresponds with excellent inhibitory activity; partial growth (PG) which corresponds with good inhibitory activity; complete growth (CG) which corresponds with little or no inhibitory activity; conditions: TSB tube with 1.0 mL sample solution (100 mg/mL) and 100 μL 24-hour culture; after 24 hours plated, incubated 24 hours
Procedure: (§4) In the second method, turbidity assays were conducted. Tryptic soy broth (TSB) tubes were inoculated with 1.0 mL of sample solutions (100 mg/mL) and 50 μL of 24-hour cultures of each microbe. In the case of C. albicans, 100 μL of 24-hour culture was used. After 24 hours, an aliquot from each tube was plated out onto nutrient media and incubated for 24 hours. Following incubation, colonies on each plate were observed and characterized as one of three categories: no-growth (NG) which corresponds with excellent inhibitory activity, partial growth (PG) which corresponds with good inhibitory activity, complete growth (CG) which corresponds with little or no inhibitory activity.
(§5) S. pyongenes, could not be grown in the solution, so the turbidity assay was not conducted for that microorganism. When the data from both zone inhibition (Table 2) and turbidity (Table 3) assays are compared, an indication of the inhibition activity may be evident.

Eschrichia coli [5] = test: Turbidity assay (TSB tubes, plated out); design: key: no-growth (NG) which corresponds with excellent inhibitory activity; partial growth (PG) which corresponds with good inhibitory activity; complete growth (CG) which corresponds with little or no inhibitory activity; conditions: TSB tube with 1.0 mL sample solution (100 mg/mL) and 50 μL 24-hour culture; after 24 hours plated, incubated 24 hours
Procedure: as §4, §5

Staphlococcus aureus [6] = test: Turbidity assay (TSB tubes, plated out); design: key: no-growth (NG) which corresponds with excellent inhibitory activity; partial growth (PG) which corresponds with good inhibitory activity; complete growth (CG) which corresponds with little or no inhibitory activity; conditions: TSB tube with 1.0 mL sample solution (100 mg/mL) and 50 μL 24-hour culture; after 24 hours plated, incubated 24 hours
Procedure: as §4, §5

Row | Compound | inhibitory zone, Candida albicans (Candida albicans [1]) | inhibitory zone, Eschrichia coli (Eschrichia coli [2]) | inhibitory zone, Salmonella typhimerium (Salmonella typhimerium) | inhibitory zone, Staphlococcus aureus (Staphlococcus aureus [3]) | inhibitory zone, Streptococcus pyogenes (Streptococcus pyogenes) | colony growth category, Candida albicans (Candida albicans [4]) | colony growth category, Eschrichia coli (Eschrichia coli [5]) | colony growth category, Staphlococcus aureus (Staphlococcus aureus [6])
1 | CC1(C)S[C@@H]2[C@H](NC(=O)[C@H](N)c3ccc(O)cc3)C(=O)N2[C@H]1C(=O)O [Sample 10, Amoxicillin] | no activity | 3.5 millimeters | 8 millimeters | 7.5 millimeters | – | – | – | –
2 | O=C([O-])CCCCC1CCSS1.O=C([O-])CCCCC1CCSS1.[Zn+2] (stereo not shown) [Sample 6, Zinc Lipoate] | no activity | .5 millimeters | 2 millimeters | 1.5 millimeters | 1 millimeters | – | – | –
3 | CC(=O)[O-].[Na+] [Sample 15, Sodium Acetate] | no activity | no activity | no activity | no activity | no activity | CG | NG | NG
4 | O=C([O-])CC(O)(CC(=O)[O-])C(=O)[O-].[Na+].[Na+].[Na+] [Sample 18, Sodium Citrate] | no activity | no activity | – | no activity | no activity | – | – | –
5 | Cc1cc(NS(=O)(=O)c2ccc(N)cc2)no1 [Sample 12, Sulfamethoxazole] | no activity | 3 millimeters | 4 millimeters | 3.5 millimeters | 7.5 millimeters | CG | CG | CG
6 | Zinc Gluconate [Sample 7] | no activity | 2 millimeters | 2.75 millimeters | 3 millimeters | 5 millimeters | – | – | –
7 | O=C(O)c1cn(C2CC2)c2cc(N3CCNCC3)c(F)cc2c1=O [Sample 9, Ciproflaxicin] | no activity | 5 millimeters | 10 millimeters | 8.5 millimeters | 3 millimeters | – | – | –
8 | [Cl-].[Na+] [Sample 14, Sodium Chloride] | no activity | no activity | no activity | no activity | no activity | – | – | –
9 | CN[C@H](CC(C)C)C(=O)N[C@H]1C(=O)N[C@@H](CC(N)=O)C(=O)N[C@H]2C(=O)N[C@H]3C(=O)N[C@H](C(=O)N[C@H](C(=O)O)c4cc(O)cc(O)c4-c4cc3ccc4O)[C@H](O)c3ccc(c(Cl)c3)Oc3cc2cc(c3O[C@@H]2O[C@H](CO)[C@@H](O)[C@H](O)[C@H]2O[C@H]2C[C@](C)(N)[C@H](O)[C@H](C)O2)Oc2ccc(cc2Cl)[C@H]1O [Sample 13, Vancomycin] | no activity | no activity | no activity | 5 millimeters | 5 millimeters | – | – | –
